melting point | SMILES
88 to 90 °C | O=C(Nc1nc(CO)cs1)C(CC1CCCC1)c1ccc(Cl)c(Cl)c1 (centres unmarked) [Example 17, 3-Cyclopentyl-2-(3,4-dichlorophenyl)-N-(4-hydroxymethyl-thiazol-2-yl)-propionamide]
95 to 98 °C | COC(=O)c1csc(NC(=O)C(CC2CCCC2)c2cccc(Cl)c2)n1 (centres unmarked) [Example 30, 2-[2-(3-Chloro-phenyl)-3-cyclopentyl-propionylamino]-thiazole-4-carboxylic acid methyl ester]
243 to 244 °C | CS(=O)(=O)c1ccc(C(CC2CCCC2)C(=O)Nc2ncc[nH]2)cc1[N+](=O)[O-] (centres unmarked) [Example 162, 3-Cyclopentyl-N-(1 H-imidazol-2-yl)-2-(4-methanesulfonyl-3-nitro-phenyl)-propionamide]
104 to 108 °C | CS(=O)(=O)c1ccc(C(CC2CCCC2)C(=O)Nc2cnccn2)cc1[N+](=O)[O-] (centres unmarked) [Example 161, 3-Cyclopentyl-2-(4-methanesulfonyl-3-nitro-phenyl)-N-pyrazin-2-yl-propionamide]
138.8 to 141.2 °C | O=C(Nc1nccs1)C(CC1CCCC1)c1cccc(Cl)c1 (centres unmarked) [Example 6, 2-(3-Chloro-phenyl)-3-cyclopentyl-N-thiazol-2-yl-propionamide]
61 to 64 °C | O=C(Nc1nccs1)C(CC1CCCC1)c1cccc(S(=O)(=O)C(F)(F)F)c1 (centres unmarked) [Example 69, 3-Cyclopentyl-N-thiazol-2-yl-2-(3-trifluoromethanesulfonyl-phenyl)-propionamide]
75 to 80 °C | CS(=O)(=O)c1ccc(C(CC2CCCC2)C(=O)Nc2ccncn2)cc1Br (centres unmarked) [Example 148(A), 2-(3-Bromo-4-methanesulfonyl-phenyl)-3-cyclopentyl-N-pyrimidin-4-yl-propionamide]
103 to 105 °C | O=C(Nc1ncccn1)C(CC1CCCC1)c1ccc(Cl)c(Cl)c1 (centres unmarked) [Example 59, 3-Cyclopentyl-2-(3,4-dichlorophenyl)-N-pyrimidin-2-yl-propionamide]
107 to 110 °C | CS(=O)(=O)c1ccc(C(CC2CCCC2)C(=O)Nc2ccccn2)cc1S(C)(=O)=O (centres unmarked)
179 to 181 °C | NS(=O)(=O)c1ccc(C(CC2CCCC2)C(=O)Nc2nccs2)cc1 (centres unmarked) [Example 82, 3-Cyclopentyl-2-(4-sulfamoyl-phenyl)-N-thiazol-2-yl-propionamide]
89 to 94 °C | Cc1nccc(NC(=O)C(CC2CCCC2)c2ccc(S(C)(=O)=O)c(C#N)c2)n1 (centres unmarked) [Example 152, 2-(3-Cyano-4-methanesulfonyl-phenyl)-3-cyclopentyl-N-(2-methyl-pyrimidin-4-yl)-propionamide]
256 to 258 °C (dec.) | CS(=O)(=O)c1ccc(C(CC2CCCC2)C(=O)Nc2cc[nH]c(=O)n2)cc1[N+](=O)[O-] (centres unmarked) [Example 160, 3-Cyclopentyl-2-(4-methanesulfonyl-3-nitro-phenyl)-N-(2-oxo-1,2-dihydro-pyrimidin-4-yl)-propionamide]
166 to 167 °C | COc1ccc(C(CC2CCCC2)C(=O)Nc2nccs2)cc1 (centres unmarked) [Example 115, 3-Cyclopentyl-2-(4-methoxy-phenyl)-N-thiazol-2-yl-propionamide]
51 to 53 °C | COc1ccc(C(CC2CCCC2)C(=O)Nc2nccs2)cc1F (centres unmarked) [Example 118, 3-Cyclopentyl-2-(3-fluoro-4-methoxy-phenyl)-N-thiazol-2-yl-propionamide]
100 to 102 °C | O=C(O)Cc1csc(NC(=O)C(CC2CCCC2)c2ccc(Cl)c(Cl)c2)n1 (centres unmarked) [Example 18, {2-[3-Cyclopentyl-2-(3,4-dichlorophenyl)-propionylamino]-thiazol-4-yl}-acetic acid]
75 to 80 °C | CS(=O)(=O)c1ccc([C@@H](CC2CCCC2)C(=O)Nc2cnccn2)cc1 [Example 127, 3-Cyclopentyl-2(R)-(4-methylsulfonyl-phenyl)-N-pyrazin-2-yl-propionamide]
96 to 99 °C | Cc1nccc(NC(=O)C(CC2CCCC2)c2ccc(S(C)(=O)=O)c([N+](=O)[O-])c2)n1 (centres unmarked) [Example 159, 3-Cyclopentyl-2-(4-methanesulfonyl-3-nitro-phenyl)-N-(2-methyl-pyrimidin-4-yl)-propionamide]
251 to 255 °C | O=C(O)c1ccc(NC(=O)C(CC2CCCC2)c2cccc(Cl)c2)nc1 (centres unmarked) [Example 120, 6-[2-(3-Chloro-phenyl)-3-cyclopentyl-propionylamino]-nicotinic acid]
121 to 124 °C | CS(=O)(=O)c1ccc(C(CC2CCCC2)C(=O)Nc2nccs2)cc1[N+](=O)[O-] (centres unmarked) [Example 14, 3-Cyclopentyl-2-(4-methanesulfonyl-3-nitrophenyl)-N-thiazol-2-yl-propionamide]
158 to 160 °C | Nc1cccc(C(CC2CCCC2)C(=O)Nc2nccs2)c1 (centres unmarked) [Example 5, 2-(3-Amino-phenyl)-3-cyclopentyl-N-thiazol-2-yl-propionamide]
269 to 270 °C | O=C(O)c1cnc(NC(=O)C(CC2CCCC2)c2ccc(Cl)c(Cl)c2)s1 (centres unmarked) [Example 19, 2-[3-Cyclopentyl-2-(3,4-dichlorophenyl)-propionylamino]-thiazole-5-carboxylic acid]

melting point | SMILES
68 to 72 °C | O=C(Nc1nccs1)C(CC1CCCC1)c1ccc(Cl)c([N+](=O)[O-])c1 (centres unmarked) [Example 64, 2-(4-Chloro-3-nitro-phenyl)-3-cyclopentyl-N-thiazol-2-yl-propionamide]
80 to 83 °C | CS(=O)(=O)c1ccc(C(CC2CCCC2)C(=O)Nc2ccc(Br)cn2)cc1[N+](=O)[O-] (centres unmarked) [Example 66, N-(5-Bromo-pyridin-2-yl)-3-cyclopentyl-2-(4-methanesulfonyl-3-nitro-phenyl)-propionamide]
83 to 86 °C | CS(=O)(=O)c1ccc(C(CC2CCCC2)C(=O)Nc2ccc(Br)cn2)cc1Br (centres unmarked) [Example 74, 2-(3-Bromo-4-methanesulfonyl-phenyl)-N-(5-bromo-pyridin-2-yl)-3-cyclopentyl-propionamide]
81 to 85 °C | CS(=O)(=O)c1ccc(C(CC2CCCC2)C(=O)Nc2ccc(Br)cn2)cc1C(F)(F)F (centres unmarked) [Example 156(A), N-(5-Bromo-pyridin-2-yl)-3-cyclopentyl-2-(4-methanesulfonyl-3-trifluoromethyl-phenyl)-propionamide]
86 to 89 °C | CS(=O)(=O)c1ccc(C(CC2CCCC2)C(=O)Nc2ccccn2)cc1C(F)(F)F (centres unmarked) [Example 90, 3-Cyclopentyl-2-(4-methanesulfonyl-3-trifluoromethyl-phenyl)-N-pyridin-2-yl-propionamide]
58 to 60 °C | O=C(Nc1nccs1)C(CC1CCCC1)c1ccc(SC(F)(F)F)cc1 (centres unmarked) [Example 10, 3-Cyclopentyl-N-thiazol-2-yl-2-(4-trifluoromethylsulfanyl-phenyl)-propionamide]
170 to 173 °C | O=C(Nc1nccs1)C(CC1CCCC1)c1ccc(O)c(O)c1 (centres unmarked) [Example 114, 3-Cyclopentyl-2-(3,4-dihydroxy-phenyl)-N-thiazol-2-yl-propionamide]
130 to 132 °C | O=C(Nc1ccc(Br)cn1)C(CC1CCCC1)c1ccc(S(=O)(=O)C(F)(F)F)cc1 (centres unmarked) [Example 63, N-(5-Bromo-pyridin-2-yl)-3-cyclopentyl-2-(4-trifluoromethanesulfonyl-phenyl)-propionamide]
> 210 °C (dec.) | CS(=O)(=O)c1ccc(C(CC2CCCC2)C(=O)Nc2ncc[nH]2)cc1Br (centres unmarked) [Example 150, 2-(3-Bromo-4-methanesulfonyl-phenyl)-3-cyclopentyl-N-(1 H-imidazol-2-yl)-propionamide]
125 to 127 °C | O=C(Nc1nccs1)C(CC1CCCC1)c1ccc(F)c(C(F)(F)F)c1 (centres unmarked) [Example 87(A), 3-Cyclopentyl-2-(4-fluoro-3-trifluoromethyl-phenyl)-N-thiazol-2-yl-propionamide]
70 to 71 °C | O=C(Nc1cccnn1)C(CC1CCCC1)c1ccc(Cl)c(Cl)c1 (centres unmarked) [Example 58, 3-Cyclopentyl-2-(3,4-dichlorophenyl)-N-pyridazin-3-yl-propionamide]
91 to 95 °C | CS(=O)(=O)c1ccc(C(CC2CCCC2)C(=O)Nc2ccncn2)cc1[N+](=O)[O-] (centres unmarked) [Example 158, 3-Cyclopentyl-2-(4-methanesulfonyl-3-nitro-phenyl)-N-pyrimidin-4-yl-propionamide]
207 to 209 °C | CS(=O)(=O)c1ccc(C(CC2CCCC2)C(=O)Nc2nccs2)cc1N (centres unmarked) [Example 68, 2-(3-Amino-4-methanesulfonyl-phenyl)-3-cyclopentyl-N-thiazol-2-yl-propionamide]
163 to 165 °C | CCCCS(=O)(=O)c1ccc(C(CC2CCCC2)C(=O)Nc2nccs2)cc1 (centres unmarked) [Example 86(A), 2-[4-(Butane-1-sulfonyl)-phenyl]-3-cyclopentyl-N-thiazol-2-yl-propionamide]
84 to 87 °C | CS(=O)(=O)c1ccc(C(CC2CCCC2)C(=O)Nc2nc(CCO)cs2)cc1 (centres unmarked) [Example 36, 3-Cyclopentyl-N-[4-(2-hydroxyethyl)-thiazol-2-yl]-2-(4-methanesulfonyl-phenyl)-propionamide]
74 to 77 °C | CS(=O)(=O)c1ccc(C(CC2CCCC2)C(=O)Nc2ccc(CO)cn2)cc1 (centres unmarked) [Example 52, 3-Cyclopentyl-N-(5-hydroxymethyl-pyridin-2-yl)-2-(4-methanesulfonyl-phenyl)-propionamide]
101 to 102 °C | O=C(Nc1ccccn1)C(CC1CCCC1)c1ccc(SC(F)(F)F)cc1 (centres unmarked) [Example 41, 3-Cyclopentyl-N-pyridin-2-yl-2-(4-trifluoromethylsulfanyl-phenyl)-propionamide]
199 to 201 °C | O=C(Nc1nccs1)C(CC1CCCC1)c1ccc(O)c(F)c1 (centres unmarked) [Example 119, 3-Cyclopentyl-2-(3-fluoro-4-hydroxy-phenyl)-N-thiazol-2-yl-propionamide]
> 200 °C | CS(=O)(=O)c1ccc([C@@H](CC2CCCC2)C(=O)Nc2cc[nH]c(=O)n2)cc1Cl [Example 145, 2(R)-(3-Chloro-4-methanesulfonyl-phenyl)-3-cyclopentyl-N-(2-oxo-1,2-dihydro-pyrimidin-4-yl)-propionamide]
85 to 86 °C | O=C(Nc1nc(CCO)cs1)C(CC1CCCC1)c1ccc(Cl)c(Cl)c1 (centres unmarked) [Example 16, 3-Cyclopentyl-2-(3,4-dichlorophenyl)-N-[4-(2-hydroxyethyl)-thiazol-2-yl]-propionamide]
